Test results from article PMC8840689, “Bacillus cereus Toxin Repertoire: Diversity of (Iso)cereulide(s)” (Molecules, 2022).

Assays:
[1] = UPLC retention on RP-BEH-C18 column (analyte hydrophobicity); format: physicochemical; details: for RT (retention time on RP-BEH-C18 UPLC column): chromatographic, BEH-C18 2.1 × 150 mm, 1.7 µm, 0.4 mL/min, 45 °C, A aqueous HCOOH (0.1%), B MeCN with HCOOH (0.1%), 93% B to 100% B in 4 min, ESI-TOF-MS, uncalibrated, link to hydrophobicity only implicit
Protocol: Purification of cereulide (1) and isocereulides H–N (2–8): The purification of 1–8 from the reduced ethanol extract was performed according to the literature. In brief, the extract was diluted with H2O (1:10) for better retention of the target analytes on the column material and pre-fractionated via C18 SPE cartridges (60 mL, 10 g; Chromabond, Macherey-Nagel, Düren, Germany). All obtained methanolic fractions were combined and the solvent was reduced to approx. 150 mL using a rotary evaporator and stored at −20 °C until further use for compound isolation. The sample material was separated via semi-preparative HPLC into 10 fractions (Supplementary Materials, Figure S1), for which the respective eluates were combined and their solvents removed through a rotary evaporator. The obtained HPLC fractions were screened for cereulide (1) and its isocereulides using a UPLC-TOF-MS system Synapt G2-S (Waters, Manchester, UK) in the positive electrospray mode equipped with a 2.1 × 150 mm, 1.7 µm BEH-C18 column (Waters, Manchester, UK) at a flow rate of 0.4 mL/min at 45 °C using aqueous HCOOH (0.1%) as solvent A and MeCN with HCOOH (0.1%) as solvent B. Elution was performed by starting at 93% B, increasing to 100% B in 4 min, holding at 100% B for 2 min, followed by decreasing to 93% in 0.1 min and holding at 93% B for 0.9 min.

[2] = system: HEp-2 cells; format: cell-based
Excerpt: (§1) Determination of EC50 of cereulide (1) and isocereulides H–N (2–8) via HEp-2 cell assay. The testing principle of the HEp-2 cell assay is based on the uncoupling of ATP synthesis, effectuated by supplemented ionophores, resulting in a facilitated ion influx into the mitochondria, thus disrupting the membrane potential. As a result, the 50% effective concentration (EC50) gives the amount of toxin required to inactivate half of the viable cells.
HEp-2 cell assay: The cytotoxic activity of 1–8 was determined by quantifying their EC50 using HEp-2 cells, as described previously. In a 96-well microtiter plate assay, a 2% ethanolic minimum essential medium (MEM-Earle’s), containing 2% FCS, 1% sodium pyruvate and 0.4% penicillin-streptomycin (v/v each), was provided to perform stepwise dilution of each toxin solution. As an overall toxicity reference and cell control, the structurally related toxin valinomycin was used analogously, in a range of approx. 2–500 ng/mL. The composition of each toxin sample is listed in the Supplementary Materials, Table S2. The HEp-2 cells were freed from their medium and washed with 5 mL of PBS twice and 5 mL of 0.05% Trypsin/EDTA solution was added. After incubation (8 min, 37 °C, 5% CO2), 10 mL of MEM was added and the cells were resuspended, transferred to a falcon tube and centrifuged (RT, 7 min, 700 rpm). The supernatant was discarded, the cell pellet was suspended in 5 mL of MEM and the cell count was determined via Trypan blue. Finally, the cell count was set to 6.7 × 10^5 cells/mL MEM (1 × 10^5 cells/well); a total of 150 µL of this solution was spiked to each well and the plate was incubated (48 h, 37 °C, 5% CO2). After removing 100 µL of the medium, 10 µL of the cell proliferation reagent WST (cell counting kit) was added and shaken for 1 min (400 rpm) and the plate was incubated (20 min, 37 °C, 5% CO2). To determine cell viability, the extinction at 450 nm/620 nm (TECAN infinite F200) was measured. The respective EC50 values for each sample were then calculated from the obtained dose-response curves and the corresponding applied sample dilution and concentration.
An aliquot of 2 µL of the respective samples with ^13C6-cereulide as an internal standard (100 ng/mL) was applied for the quantitation of 1–8 in the samples, later applied in the HEp-2 cell assay according to the literature, performed on a Waters Xevo TQ-S mass spectrometer (Waters) coupled to an Acquity UPLC i-class core system (Waters) with a binary solvent manager, sample manager and column oven. The system was operated with MassLynx 4.1 SCN 813 Software (Waters) and data processing and analysis were performed with TargetLynx (Waters). The recently reported quantitation method for cereulide and isocereulides A-G [33] was extended by implementing the ammonium adducts of 2–8 using the multiple reaction monitoring mode with the following parameters. Compounds 2, 3 and 7 m/z 1156.6 → qualifier m/z 172.2, 314.2; quantifier m/z 357.2. Compound 4 m/z 1142.6 → qualifier m/z 172.2, 314.2; quantifier m/z 357.2. Compound 5 m/z 1184.6 → qualifier m/z 172.2, 314.2; quantifier m/z 357.2. Compounds 6 and 8 m/z 1186.6 → qualifier m/z 172.2, 314.2; quantifier m/z 357.2. The calibration for the quantitation of the analytes consisted of mixtures of cereulide (0.1–1000 ng/mL in EtOH) and ^13C6-cereulide (100 ng/mL) as an internal standard. Mixtures were prepared from stock solutions and analyzed in triplicate by UPLC-MS/MS. The calibration curve was obtained by plotting the peak area ratios of analytes to internal standard against the concentration ratios of analyte to internal standard for each solution and applying linear regression (origin excluded) to give the equation y=2.5174x+0.0061 with R^2=0.9998 . For 1 and ^13C6-cereulide, the quantifier mass transitions were selected as m/z 1170.7 → m/z 357.2 and m/z 1176.7 → m/z 358.2, respectively. All mass spectrometric and chromatographic parameters were used as reported.

[3] = cited from earlier work
Excerpt: as §1

[4] = system: blood–brain barrier; details: porcine model; cited from earlier work
Excerpt: (§2) Similar to the antibiotic valinomycin, cereulide unfolds its toxicity potential due to a high affinity for complex formation with alkali metal ions (Li^+, Na^+ and K^+) and ammonium ions, resulting in its biological function as a strong K^+ ionophore and as a K^+ transporter, resulting in cell membrane depolarization.

[5] = system: 5–HT3 receptors; details: lower concentrations; stimulation of the vagus afferent by binding to 5–HT3 receptors in the duodenum; cited from earlier work
Excerpt: as §2

[6] = cited from earlier work; remark: listed apart in the source
Excerpt: . Cereulide (1) is composed of 12 alternatingly placed α-amino and α-hydroxy acids thought to form the three-time circularly repeating tetradepsipeptide unit D-O-Leu-D-Ala-L-O-Val-L-Val (Figure 1), leading to its characteristic dodecadepsipeptide structure in a rectangular cylindrical shape. Because of its uniqu ...

[7] = system: HEp-2 cells; details: cited from earlier work
Excerpt: At this point, we can only speculate about the magnitude of the impact that isocereulides have on the overall toxicity of (iso)cereulide-containing B. cereus cell cultures.

Molecule	RT (retention time on RP-BEH-C18 UPLC column) [1] [min]	also measured
isocereulide C	2.52	–
isocereulide F	5.00	–
isocereulide N	2.76	–
isocereulide B	3.83	–
CC(C)C[C@H]1OC(=O)[C@H](C(C)C)NC(=O)[C@H](C(C)C)OC(=O)CNC(=O)[C@@H](CC(C)C)OC(=O)[C@H](C(C)C)NC(=O)[C@H](C(C)C)OC(=O)[C@@H](C)NC(=O)[C@@H](CC(C)C)OC(=O)[C@H](C(C)C)NC(=O)[C@H](C(C)C)OC(=O)[C@@H](C)NC1=O [Isocereulide H, isocereulide H]	2.88	absolute EC50 ([2]; 48 h): 6.62 ng/mL; decreased toxicity effect on HEp-2 cells compared to 1 ([2]; HEp-2 cells, 48 h): 63%
isocereulide J	3.57	–
CC(C)C[C@H]1OC(=O)[C@H](C(C)C)NC(=O)[C@H](C(C)C)OC(=O)[C@@H](C)NC(=O)[C@@H](CC(C)C)OC(=O)[C@H](C(C)C)NC(=O)[C@H](C(C)C)OC(=O)[C@@H](C)NC(=O)[C@@H](CC(C)C)OC(=O)[C@H](C(C)C)NC(=O)[C@H](C(C)C)OC(=O)[C@@H](C)NC1=O [Cereulide, cereulide]	4.25	absolute EC50 ([2]; 48 h): 2.44 ng/mL; toxic effect relative to valinomycin at an equally applied concentration ([2]; HEp-2 cells, from EC50 values, data not shown): 13.7 times; increased toxicity compared to valinomycin [3]: approx. 15 fold; crossing of the blood–brain barrier [4]: can cross the blood–brain barrier; emetic effect [5]: provoke vomiting; stability to temperatures, pH values and enzymes [6]: inert to a wide range of temperatures, pH values and enzymes
isocereulide G	4.56	–
CC[C@@H]1NC(=O)[C@H](C(C)C)OC(=O)[C@@H](C)NC(=O)[C@@H](CC(C)C)OC(=O)[C@H](C(C)C)NC(=O)[C@H](C(C)C)OC(=O)[C@@H](C)NC(=O)[C@@H](CC(C)C)OC(=O)[C@H](C(C)C)NC(=O)[C@H](C(C)C)OC(=O)[C@@H](C)NC(=O)[C@@H](CC(C)C)OC1=O [Isocereulide I, isocereulide I]	3.40	absolute EC50 ([2]; 48 h): 1.75 ng/mL; toxicity relative to cereulide (1) (reciprocal EC50, cereulide set to 1) ([2]; HEp-2 cells, 48 h): 1.4 fold; hydrophobicity compared with 1 (in words) [1]: slightly more hdrophilic
D-O-Leu-D-Ala-L-O-Val-L-Val-D-O-Leu-Gly-L-O-Val-L-Val-D-O-Ile-D-Ala-L-O-Val-L-Val (lariat or depsi) [Isocereulide M, isocereulide M, cereulide variant, D-Ala by Gly and D-O-Leu by D-O-Ile]	3.07	–
isocereulide L	2.76	–
isocereulide E	3.83	–
isocereulide D	2.88	–
isocereulide K	4.59	cytotoxicity compared to 1 ([2]; HEp-2 cells, 48 h): 69%; hydrophobicity compared with 1 (in words) [1]: more hydrophobic than 1
isocereulide A	4.83	higher toxicity than cereulide [7]: approximately 8 fold
